According to the supplement of paper PMC10307832:

Experiments:
Experiment in all cases: relative viability (nuclei count vs DMSO), 5 days (fraction); higher = more cells survive
[1] = compound: C1=CC=C(C(=C1)C2=CC=C(C=C2)C3=CSC4=C3C(=C(C(=O)N4)C#N)O)O + CC1(C)CCC(c2ccc(Cl)cc2)=C(CN2CCN(c3ccc(C(=O)NS(=O)(=O)c4ccc(N[C@H](CCN5CCOCC5)CSc5ccccc5)c(S(=O)(=O)C(F)(F)F)c4)cc3)CC2)C1 [Navitoclax] (partner 0.5 µM)
Procedure, shortened: (§1)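 The day after seeding in 1536-well plates, lung cancer cell lines were treated by pin tool with a single drug, or with a fixed anchor-drug dose together with five library-drug doses (not always all listed) in √10 steps. After 5 days, a combined fix-and-stain solution (final 0.05% Triton X-100, 1% formaldehyde, 1 ug/ml Hoechst) was added. Nuclei counted on 4× images gave relative viability as treated counts over vehicle counts, reported as the median of duplicate plates.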

[2] = compound: C1=CC=C(C(=C1)C2=CC=C(C=C2)C3=CSC4=C3C(=C(C(=O)N4)C#N)O)O + N=C(N)NC(=N)NCCc1ccccc1 [Phenformin] (partner 250 µM)
Procedure, shortened: as §1

TGX 221 + Trametinib = compound: CC1=CN2C(=O)C=C(N=C2C(=C1)C(C)NC3=CC=CC=C3)N4CCOCC4 [TGX 221] + CC(=O)Nc1cccc(-n2c(=O)n(C3CC3)c(=O)c3c(Nc4ccc(I)cc4F)n(C)c(=O)c(C)c32)c1 [Trametinib] (partner 0.02 µM)
Procedure, shortened: as §1

TGX 221 + Luminespib = compound: CC1=CN2C(=O)C=C(N=C2C(=C1)C(C)NC3=CC=CC=C3)N4CCOCC4 [TGX 221] + CCNC(=O)c1noc(-c2cc(C(C)C)c(O)cc2O)c1-c1ccc(CN2CCOCC2)cc1 [Luminespib] (partner 0.01 µM)
Procedure, shortened: as §1

Cell Line | relative viability ([1]; first compound 0.08 µM) | relative viability ([1]; first compound 0.253 µM) | relative viability ([1]; first compound 0.8 µM) | relative viability ([1]; first compound 2.53 µM) | relative viability ([1]; first compound 8 µM) | relative viability ([2]; first compound 0.08 µM) | relative viability ([2]; first compound 0.253 µM) | relative viability ([2]; first compound 0.8 µM) | relative viability ([2]; first compound 2.53 µM) | relative viability ([2]; first compound 8 µM) | relative viability (TGX 221 + Trametinib; first compound 0.08 µM) | relative viability (TGX 221 + Trametinib; first compound 0.253 µM) | relative viability (TGX 221 + Trametinib; first compound 0.8 µM) | relative viability (TGX 221 + Trametinib; first compound 2.53 µM) | relative viability (TGX 221 + Trametinib; first compound 8 µM) | relative viability (TGX 221 + Luminespib; first compound 0.08 µM) | relative viability (TGX 221 + Luminespib; first compound 0.253 µM) | relative viability (TGX 221 + Luminespib; first compound 0.8 µM) | relative viability (TGX 221 + Luminespib; first compound 2.53 µM) | relative viability (TGX 221 + Luminespib; first compound 8 µM)
NCI-H2170 | 0.616 | 0.683 | 0.601 | 0.561 | 0.465 | 0.38 | 0.423 | 0.441 | 0.403 | 0.375 | 0.883 | 0.877 | 0.949 | 0.977 | 0.892 | 0.67 | 0.638 | 0.541 | 0.593 | 0.639
NCI-H2228 | 1 | 1.12 | 0.828 | 1.12 | 0.848 | 0.316 | 0.318 | 0.322 | 0.307 | 0.225 | 0.518 | 0.526 | 0.801 | 0.379 | 0.489 | 0.123 | 0.146 | 0.108 | 0.136 | 0.153
NCI-H2347 | 0.642 | 0.781 | 0.776 | 0.79 | 0.647 | 0.265 | 0.429 | 0.496 | 0.342 | 0.419 | 0.23 | 0.258 | 0.265 | 0.304 | 0.213 | 0.595 | 0.335 | 0.437 | 0.325 | 0.274
NCI-H2405 | 0.924 | 1.04 | 0.887 | 0.776 | 0.767 | 0.266 | 0.381 | 0.385 | 0.445 | 0.37 | 0.529 | 0.571 | 0.461 | 0.465 | 0.436 | 0.622 | 0.533 | 0.599 | 0.623 | 0.47
NCI-H3122 | 1.01 | 1.11 | 1 | 1.01 | 1.07 | 0.352 | 0.364 | 0.432 | 0.387 | 0.37 | 0.244 | 0.188 | 0.224 | 0.211 | 0.257 | 0.1 | 0.0831 | 0.0649 | 0.0793 | 0.116
PC-3 [JPC-3] | 0.913 | 0.816 | 0.849 | 0.765 | 0.808 | 0.452 | 0.454 | 0.44 | 0.488 | 0.516 | 0.662 | 0.701 | 0.668 | 0.595 | 0.571 | 0.584 | 0.651 | 0.693 | 0.73 | 0.681
PC-14 | 0.951 | 0.992 | 1.15 | 1.1 | 0.798 | 0.489 | 0.676 | 0.561 | 0.555 | 0.355 | 0.666 | 0.701 | 0.701 | 0.717 | 0.515 | 0.146 | 0.135 | 0.138 | 0.133 | 0.151
RERF-LC-KJ | 0.777 | 0.902 | 0.976 | 0.715 | 0.811 | 0.397 | 0.492 | 0.412 | 0.454 | 0.352 | 0.686 | 0.756 | 0.83 | 0.775 | 0.753 | 1.13 | 1.13 | 1.26 | 1.21 | 1.02
SK-LU-1 | 0.891 | 0.799 | 0.946 | 0.898 | 0.742 | 0.378 | 0.44 | 0.538 | 0.639 | 0.566 | 0.483 | 0.672 | 0.542 | 0.356 | 0.41 | 0.189 | 0.191 | 0.201 | 0.205 | 0.181
SK-MES-1 | 1.34 | 1.34 | 1.3 | 1.14 | 1 | 0.643 | 0.682 | 0.659 | 0.708 | 0.615 | 0.526 | 0.572 | 0.449 | 0.379 | 0.339 | 0.664 | 0.721 | 0.639 | 0.324 | 0.229
SW 1573 | 0.965 | 0.902 | 0.901 | 0.976 | 0.784 | 0.343 | 0.351 | 0.343 | 0.333 | 0.233 | 0.518 | 0.429 | 0.567 | 0.382 | 0.442 | 0.211 | 0.353 | 0.247 | 0.221 | 0.278
UMC-11 | 0.321 | 0.301 | 0.321 | 0.314 | 0.318 | 0.309 | 0.404 | 0.344 | 0.291 | 0.27 | 0.671 | 0.648 | 0.822 | 0.777 | 0.823 | 1.03 | 0.957 | 1.03 | 1.04 | 1.09
